Assay results as given in patent US10294248B2, “Beta-lactamase inhibitors” (VenatoRx Pharmaceuticals, Inc., priority 2013, dated 2019).
pIC50: −log10 of the molar value.

Legend:
[1] = biological target: T1, SHV-5 β-lactamase (Class A ESBL) (Klebsiella pneumoniae, UniProt P0A3M1); assay: β-Lactamase inhibition, SHV-5; assay type: biochemical
T1 construct: made in house; host or cells: E. coli BL21(DE3)
Method in brief: (§1)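 Native untagged enzymes expressed in E. coli BL21(DE3), purified by cation exchange and gel filtration. Inhibitor preincubated with enzyme 15 min at 37 °C; hydrolysis followed by absorbance: imipenem at 300 nm for KPC-2, cefotaxime at 260 nm for SHV-5. IC50 as concentration halving initial hydrolysis rate versus inhibitor-free wells.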

[2] = biological target: T2, KPC-2 β-lactamase (Class A carbapenemase) (Klebsiella pneumoniae, UniProt Q9F663); assay: β-Lactamase inhibition, KPC-2; assay type: biochemical; details: imipenem substrate, 300 nm; 15 min preincubation at 37° C., PBS pH 7.4
T2 construct: made in house; host or cells: E. coli BL21(DE3)
T2 sequence (Q9F663 25-293, looked up): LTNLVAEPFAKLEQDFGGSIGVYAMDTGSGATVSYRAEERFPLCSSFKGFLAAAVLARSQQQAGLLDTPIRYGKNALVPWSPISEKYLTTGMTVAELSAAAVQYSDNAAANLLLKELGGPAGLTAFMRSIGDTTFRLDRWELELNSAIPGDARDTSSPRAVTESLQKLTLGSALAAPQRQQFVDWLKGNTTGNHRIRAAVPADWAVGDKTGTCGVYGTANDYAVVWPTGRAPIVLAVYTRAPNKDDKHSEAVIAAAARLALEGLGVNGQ
Method in brief: as §1

[3] = biological target: T3, VIM-2 metallo-β-lactamase (Class B) (Pseudomonas aeruginosa, UniProt Q9K2N0); assay: β-Lactamase inhibition, VIM-2; assay type: biochemical; details: nitrocefin 100 μM, 486 nm; 15 min preincubation at 37° C., PBS pH 7.4
T3 construct: made in house; host or cells: E. coli BL21(DE3)
Method in brief: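 IC50 reflects the inhibitor concentration cutting the initial nitrocefin hydrolysis rate by half, compared with control wells lacking inhibitor. Substrate was used at 100 μM final after a 15 min, 37 °C enzyme–inhibitor preincubation.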

[4] = biological target: T4, p99 AmpC β-lactamase (Class C) (Enterobacter cloacae, UniProt P05364); assay: β-Lactamase inhibition, p99 AmpC; assay type: biochemical
T4 construct: made in house; host or cells: E. coli BL21(DE3)
T4 sequence (P05364 21-381): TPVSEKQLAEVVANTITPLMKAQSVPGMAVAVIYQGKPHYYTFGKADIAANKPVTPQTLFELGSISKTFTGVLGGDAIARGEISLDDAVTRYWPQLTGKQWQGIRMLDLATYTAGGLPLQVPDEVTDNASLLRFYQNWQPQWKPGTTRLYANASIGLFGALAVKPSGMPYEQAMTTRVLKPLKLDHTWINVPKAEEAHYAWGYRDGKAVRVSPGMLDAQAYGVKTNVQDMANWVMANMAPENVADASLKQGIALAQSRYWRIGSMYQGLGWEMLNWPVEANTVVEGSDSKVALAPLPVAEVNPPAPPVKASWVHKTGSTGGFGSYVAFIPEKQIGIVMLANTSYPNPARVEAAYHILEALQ

[5] = biological target: T5, OXA-1 β-lactamase (Class D oxacillinase) (Escherichia coli, UniProt P13661); assay: β-Lactamase inhibition, OXA-1; assay type: biochemical; details: nitrocefin 100 μM, 486 nm; 15 min preincubation at 37° C., PBS pH 7.4
T5 construct: made in house; host or cells: E. coli BL21(DE3)
T5 sequence (P13661 26-276): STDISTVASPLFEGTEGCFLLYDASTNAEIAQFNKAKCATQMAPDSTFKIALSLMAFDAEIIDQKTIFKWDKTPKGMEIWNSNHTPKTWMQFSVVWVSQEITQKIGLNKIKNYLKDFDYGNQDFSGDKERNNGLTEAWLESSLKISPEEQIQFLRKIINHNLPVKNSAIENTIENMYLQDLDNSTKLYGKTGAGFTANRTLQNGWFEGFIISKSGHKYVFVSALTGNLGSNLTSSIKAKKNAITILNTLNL
Method in brief: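 Untagged enzyme from E. coli BL21(DE3), purified by Capto S then Superdex 75; 15 min 37 °C preincubation with inhibitor; KPC-2 read with imipenem at 300 nm, SHV-5 with cefotaxime at 260 nm, OXA-1 with nitrocefin 100 μM final at 486 nm; 10 min kinetic read; IC50 vs uninhibited wells.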

[6] = test system: E. coli ESBL4 expressing CTX-M-15; assay: Broth microdilution MIC, E. coli ESBL4 CTX-M-15; assay type: cell-based; details: fixed 4 μg/mL ceftazidime; CAMHB, 16-20 hours at 37° C.
Method in brief: (§2)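 Growth inhibition by test compound in presence of a fixed 4 μg/ml β-lactam; CLSI microdilution in CAMHB, visual endpoint after overnight 37° C incubation.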

[7] = test system: E. cloacae 144200 expressing Class C P99 AmpC; assay: Broth microdilution MIC, E. cloacae 144200 p99 AmpC; assay type: cell-based; details: fixed 4 μg/mL ceftazidime; CAMHB, 16-20 hours at 37° C.
Method in brief: as §2

[8] = test system: K. pneumoniae 156319 expressing KPC-3; assay: Broth microdilution MIC, K. pneumoniae 156319 KPC-3; assay type: cell-based; details: fixed 4 μg/mL meropenem; CAMHB, 16-20 hours at 37° C.
Method in brief: as §2

[9] = test system: P. aeruginosa Ps296 expressing VIM-2; assay: Broth microdilution MIC, P. aeruginosa Ps296 VIM-2; assay type: cell-based; details: fixed 4 μg/mL meropenem; CAMHB, 16-20 hours at 37° C.
Method in brief: as §2

[10] = test system: K. pneumoniae A-1797 expressing KPC-2 and VIM-4; assay: Broth microdilution MIC, K. pneumoniae A-1797 KPC-2/VIM-4; assay type: cell-based; details: fixed 4 μg/mL meropenem; CAMHB, 16-20 hours at 37° C.
Method in brief: as §2

[11] = test system: S. aureus MSSA-7 producing penicillinase PC-1; assay: Broth microdilution MIC, S. aureus MSSA-7 PC-1; assay type: cell-based; details: fixed 4 μg/mL piperacillin; CAMHB, 16-20 hours at 37° C.
Method in brief: as §2

T1 sequence (P0A3M1 22-286): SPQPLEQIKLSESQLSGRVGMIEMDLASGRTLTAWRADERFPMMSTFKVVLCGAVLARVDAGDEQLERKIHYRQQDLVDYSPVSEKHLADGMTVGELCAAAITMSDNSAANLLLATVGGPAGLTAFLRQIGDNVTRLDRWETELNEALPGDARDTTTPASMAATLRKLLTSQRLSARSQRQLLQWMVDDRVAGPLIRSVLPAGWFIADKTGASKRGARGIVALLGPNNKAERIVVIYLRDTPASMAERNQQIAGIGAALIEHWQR

Compound	pIC50 [1]	pIC50 [2]	pIC50 [3]	pIC50 [4]	pIC50 [5]	MIC of example compound in presence of fixed β-lactam: Fixed CAZ, E. coli ESBL4 CTX-M-15 [6]	MIC of example compound in presence of fixed β-lactam: Fixed CAZ, E. cl. 144200 p99 AmpC [7]	MIC of example compound in presence of fixed β-lactam: Fixed Mero, K. P. 156319 KPC-3 [8]	MIC of example compound in presence of fixed β-lactam: Fixed Mero, P. aerug. Ps296 VIM-2 [9]	MIC of example compound in presence of fixed β-lactam: Fixed Mero, K. P. A-1797 KPC-2 VIM-4 [10]	MIC of example compound in presence of fixed β-lactam: Fixed Pip, S. aureus MSSA-7 PC-1 [11]
O=C(COC1CCNCC1)N[C@H]1Cc2cccc(C(=O)O)c2OB1O [Example 39, 2-Hydroxy-3-[2-(piperidin-4-yloxy)-acetylamino]-3,4-dihydro-2H-benzo[e][1,2]oxaborinine-8-carboxylic acid]	6.00 to 7.00	> 7.00	6.00 to 7.00	> 7.00	> 7.00	C (the MIC in the presence of <4 μg/mL of a β-lactamase inhibitor)	C (the MIC in the presence of <4 μg/mL of a β-lactamase inhibitor)	C (the MIC in the presence of <4 μg/mL of a β-lactamase inhibitor)	C (the MIC in the presence of <4 μg/mL of a β-lactamase inhibitor)	B (the MIC in the presence of between 8 and 32 μg/mL of a β-lactamase inhibitor)	C (the MIC in the presence of <4 μg/mL of a β-lactamase inhibitor)
O=C(CNC1CCNCC1)N[C@H]1Cc2cccc(C(=O)O)c2OB1O [Example 40, 2-Hydroxy-3-[2-(piperidin-4-ylamino)-acetylamino]-3,4-dihydro-2H-benzo[e][1,2]oxaborinine-8-carboxylic acid]	> 7.00	6.00 to 7.00	6.00 to 7.00	> 7.00	> 7.00	C (the MIC in the presence of <4 μg/mL of a β-lactamase inhibitor)	C (the MIC in the presence of <4 μg/mL of a β-lactamase inhibitor)	B (the MIC in the presence of between 8 and 32 μg/mL of a β-lactamase inhibitor)	C (the MIC in the presence of <4 μg/mL of a β-lactamase inhibitor)	B (the MIC in the presence of between 8 and 32 μg/mL of a β-lactamase inhibitor)	C (the MIC in the presence of <4 μg/mL of a β-lactamase inhibitor)
NCCN1CCC(CC(=O)N[C@H]2Cc3cccc(C(=O)O)c3OB2O)CC1 [Example 41, 3-{2-[1-(2-Amino-ethyl)-piperidin-4-yl]-acetylamino}-2-hydroxy-3,4-dihydro-2H-benzo[e][1,2]oxaborinine-8-carboxylic acid]	> 7.00	> 7.00	6.00 to 7.00	> 7.00	> 7.00	C (the MIC in the presence of <4 μg/mL of a β-lactamase inhibitor)	C (the MIC in the presence of <4 μg/mL of a β-lactamase inhibitor)	C (the MIC in the presence of <4 μg/mL of a β-lactamase inhibitor)	C (the MIC in the presence of <4 μg/mL of a β-lactamase inhibitor)	C (the MIC in the presence of <4 μg/mL of a β-lactamase inhibitor)	C (the MIC in the presence of <4 μg/mL of a β-lactamase inhibitor)
CN(CC(=O)N[C@H]1Cc2cccc(C(=O)O)c2OB1O)C1CCNCC1 [Example 43, 2-Hydroxy-3-[2-(methyl-piperidin-4-yl-amino)-acetylamino]-3,4-dihydro-2H-benzo[e][1,2]oxaborinine-8-carboxylic acid]	> 7.00	> 7.00	6.00 to 7.00	> 7.00	> 7.00	C (the MIC in the presence of <4 μg/mL of a β-lactamase inhibitor)	C (the MIC in the presence of <4 μg/mL of a β-lactamase inhibitor)	C (the MIC in the presence of <4 μg/mL of a β-lactamase inhibitor)	C (the MIC in the presence of <4 μg/mL of a β-lactamase inhibitor)	C (the MIC in the presence of <4 μg/mL of a β-lactamase inhibitor)	C (the MIC in the presence of <4 μg/mL of a β-lactamase inhibitor)
O=C(O)c1cccc2c1OB(O)[C@@H](NC(=O)C1CCNCC1)C2 [Example 44, 2-Hydroxy-3-[(piperidine-4-carbonyl)-amino]-3,4-dihydro-2H-benzo[e][1,2]oxaborinine-8-carboxylic acid]	> 7.00	> 7.00	4.00 to 5.00	> 7.00	> 7.00	C (the MIC in the presence of <4 μg/mL of a β-lactamase inhibitor)	C (the MIC in the presence of <4 μg/mL of a β-lactamase inhibitor)	C (the MIC in the presence of <4 μg/mL of a β-lactamase inhibitor)	A (an MIC of the fixed β-lactam antibiotic in the presence of >32 μg/mL of a β-lactamase inhibitor)	A (an MIC of the fixed β-lactam antibiotic in the presence of >32 μg/mL of a β-lactamase inhibitor)	C (the MIC in the presence of <4 μg/mL of a β-lactamase inhibitor)
CN1CCC(CC(=O)N[C@H]2Cc3cccc(C(=O)O)c3OB2O)CC1 [Example 45, 2-Hydroxy-3-[2-(1-methyl-piperidin-4-yl)-acetylamino]-3,4-dihydro-2H-benzo[e][1,2]oxaborinine-8-carboxylic acid]	> 7.00	> 7.00	6.00 to 7.00	> 7.00	6.00 to 7.00	C (the MIC in the presence of <4 μg/mL of a β-lactamase inhibitor)	C (the MIC in the presence of <4 μg/mL of a β-lactamase inhibitor)	C (the MIC in the presence of <4 μg/mL of a β-lactamase inhibitor)	C (the MIC in the presence of <4 μg/mL of a β-lactamase inhibitor)	C (the MIC in the presence of <4 μg/mL of a β-lactamase inhibitor)	B (the MIC in the presence of between 8 and 32 μg/mL of a β-lactamase inhibitor)
